Measured values: patent EP3360574B1, “MEDICINAL COMPOSITION FOR AMELIORATING AND TREATING INTERVERTEBRAL DISC DEGENERATION AND LOW BACK PAIN, AND METHOD FOR SCREENING THERAPEUTIC AGENT” (Keio University, priority 2015, dated 2017)

How the values were obtained:
COX-2 mRNA expression = assay: Effect of MAPK inhibitors on COX-2 gene expression under oxidative stress (RT-PCR); type: cell-based, rat; details: MAPK inhibitor 10 µM, 30 minutes later 100 µM hydrogen peroxide or 1 mM BSO; RT-PCR 24 hours later
Experimental: Hydrogen peroxide or BSO was added to rat annulus fibrosus cells in the presence of MAPK inhibitors, and their effects on an increase in COX-2 mRNA expression were analyzed. The MAPK inhibitors used were PD98059 (ERK inhibitor; represented by PD in Figure 3), SP600125 (JNK inhibitor; represented by SP in Figure 3), and SB203580 (p38 inhibitor; represented by SB in Figure 3) (all manufactured by Wako Pure Chemical Industries, Ltd.). These MAPK inhibitors were each added at concentration of 10 µM to a medium, and 30 minutes later, 100 µM hydrogen peroxide or 1 mM BSO was added thereto. The expression of COX-2 was analyzed by RT-PCR 24 hours later.

MAPK signaling cascade = assay: Effect on MAPK signaling cascade activation caused by TNF-α (Western blotting); type: cell-based, rat; details: 50 ng/ml TNF-α in the presence of 100 µM NAC
Experimental: NAC was also analyzed for whether to suppress phosphorylation in the MAPK signaling cascade generating downstream signals of oxidative stress (Figure 6E). In the same way as above, cells were treated with 50 ng/ml TNF-α in the presence of 100 µM NAC and analyzed by Western blotting.

[1] = test system: rat annulus fibrosus cells; assay: Effect of antioxidants on oxidative stress induced by TNF-α (gene expression by RT-PCR); type: cell-based; details: 24 hours
Experimental: Next, NAC or tocopherol was analyzed for whether to reduce oxidative stress induced by TNF-α by its addition. 50 ng/ml of TNF-α was added to cells in the presence of 100 µM NAC or 20 mM α-tocopherol, and the cells were collected 24 hours later, followed by gene expression analysis on MMP-3, COX-2, and aggrecan by RT-PCR (Figures 6C and 6D). NAC and tocopherol were also shown to suppress oxidative stress induced by the addition of TNF-α.

[2] = test system: intervertebral disc degeneration models; assay: Rat caudal intervertebral disc puncture model, therapeutic administration, T2-weighted MRI; type: in vivo, Wistar rats
Experimental: The involvement of oxidative stress in intervertebral disc degeneration was studied. The caudal intervertebral discs of 8-week-old Wistar rats were punctured using a 23-G needle to prepare intervertebral disc degeneration models. A group that underwent only development without puncture (sham group) was used as a control group. Two months after the puncture, the T2 intramedullary high-intensity area was measured by MRI (GE Sigma Excite HD 1.5T, manufactured by GE Healthcare Corp.) under the following conditions: TR/TE, 3000/86; echo train length, 12; slice thickness, 2 mm; FOV, 10 cm; matrix size 352X224; NEX, 10 times.
The caudal intervertebral discs of 8-week-old female Wistar rats were punctured using a 23-G needle to prepare intervertebral disc degeneration models. The animals were divided into a group given NAC water (1 g/L) from 1 week after the puncture (NAC group) and a group raised with normal water (puncture group). A group that underwent only development without puncture (control group) was used as a control. Whether or not the administration of NAC would suppress intervertebral disc degeneration was studied 2 months after the puncture (see Figure 7A). The average body weight of the rats during the administration of NAC water was 220 g, and the average water intake of 24 hours was 35 g; thus, the rats took 159 mg/kg/day of NAC on average per day. The items to be studied were histological evaluation and a T2 intramedullary high-intensity area by MRI.
(§1) The present inventors prepared rat intervertebral disc degeneration models in the same way as above and conducted QSI analysis. Here, the QSI analysis was conducted using our uniquely developed program, though the analysis can employ software such as dTV II FZR. A puncture group, a NAC group, and a control group each involving 5 rats were subjected to the respective procedures and analyzed. […] The comparison of analysis results among the control group (a and d), the puncture group (b and e), and the NAC group (c and f) is shown.

[3] = test system: MAPKs (p38, ERK, and JNK); assay: MAPK phosphorylation after oxidative stress (Western blotting); type: cell-based, rat; details: for phosphorylation of the MAPKs p38, ERK, and JNK: 10 minutes after treatment
Experimental: Western blotting was performed by a standard method.
Downstream signals of oxidative stress were studied. The involvement of MAPKs (p38, ERK, and JNK) in the downstream system of signals induced by reactive oxygen species was analyzed. […] Protein extraction and Western blotting were performed in the same way as in the experiment using the animal models described above.
Detection was performed using an anti-p38 antibody, an anti-phosphorylated p38 antibody, an anti-JNK antibody, an anti-phosphorylated JNK antibody, an anti-ERK antibody, an anti-phosphorylated ERK antibody, an anti-NF-KB p65 antibody, an anti-phosphorylated NF-κB p65 antibody, or an anti-β-actin antibody (all manufactured by Cell Signaling Technology, Inc.) as a primary antibody, a HRP-conjugated goat anti-rabbit antibody (manufactured by Sigma-Aldrich Co. LLC) as a secondary antibody, and ECL Western Blotting Detection Reagent.
Likewise, downstream signals of oxidative stress were studied by the addition of BSO. Annulus fibrosus cells were treated with 1 mM BSO, collected 0, 5, 10, 30, or 60 minutes later, and analyzed by Western blotting.

[4] = test system: intervertebral disc degeneration; details: procedures for causing degeneration carried out after 1-week oral administration; Non Patent Literature 5; cited from earlier work
[5] = test system: intervertebral disc degeneration models; assay: Rat caudal intervertebral disc puncture model, Q-space imaging (QSI) analysis; type: in vivo
Experimental: as §1

[6] = test system: rat annulus fibrosus cells; assay: Effect of antioxidants on gene expression under oxidative stress induced by hydrogen peroxide or BSO (RT-PCR); type: cell-based; details: 24 hours
Experimental: (§2) Total RNA was prepared using RNeasy Mini kit (manufactured by Qiagen N.V.) or TRIzol Reagent (manufactured by Thermo Fisher Scientific Inc.). cDNA was synthesized using Prime Script RT Reagent Kit (manufactured by Takara Bio Inc.).
(§3) RT-PCR amplification was performed with Thermal Cycler Dice Real-Time System (manufactured by Takara Bio Inc.) using SYBR Premix Ex Taq (manufactured by Takara Bio Inc.). Expression was normalized to β-actin or hypoxanthine phosphoribosyl transferase (HPRT). The results were analyzed by the ddCt method.
(§4) The PCR primers used were as follows: • TNF-α (F) : 5'-[…]-3' (SEQ ID NO: 1) (R) : 5'-[…]-3' (SEQ ID NO: 2) • MMP-3 (F) : 5'-[…]-3' (SEQ ID NO: 3) (R) : 5'-[…]-3' (SEQ ID NO: 4) • COX-2 (F) : 5'-[…]-3' (SEQ ID NO: 5) (R) : 5'-[…]-3' (SEQ ID NO: 6) • AGC1 (F) : 5'-[…]-3' (SEQ ID NO: 7) (R) : 5'-[…]-3' (SEQ ID NO: 8) • β-actin (F) : 5'-[…]-3' (SEQ ID NO: 9) (R) : 5'-[…]-3' (SEQ ID NO: 10) • HPRT (F) : 5'-[…]-3' (SEQ ID NO: 11) (R) : 5'-[…]-3' (SEQ ID NO: 12)
100 µM hydrogen peroxide or 1 mM BSO was added to rat annulus fibrosus cells in the presence of 100 µM NAC, and the cells were cultured for 24 hours, followed by the measurement of the mRNA expression of TNF-α, MMP-3, COX-2, and aggrecan (Figures 4A and 4B).
Hydrogen peroxide or BSO was added to rat annulus fibrosus cells in the presence of 20 mM α-tocopherol, and the cells were cultured for 24 hours, followed by the measurement of the mRNA expression of TNF-α, MMP-3, COX-2, and aggrecan (Figures 5A and 5B). Here, ethanol was used as a solvent for α-tocopherol. Cells cultured in a medium added only with ethanol were used as a control.

[7] = test system: rat annulus fibrosus cells; assay: Intracellular level of reactive oxygen species (MitoTracker Orange staining, cell sorter); type: cell-based
Experimental: (§5) Rat annulus fibrosus cells were prepared as follows: rat annulus fibrosus tissues were dissected from the lumbar and coccyx intervertebral discs of 8-week-old female Wistar rats, treated with DMEM containing 0.04% pronase E (manufactured by SERVA Electrophoresis GmbH) at 37°C for 1 hour, and subsequently treated with 0.025% collagenase P (manufactured by Roche Diagnostics K.K.) at 37°C for 4 hours for isolation. The isolated cells were washed with Dulbecco's modified Eagle's medium (DMEM, manufactured by Invitrogen Corp.) containing 5% heat-inactivated fetal bovine serum (manufactured by JRH Biosciences Lenexa). The isolated annulus fibrosus cells were cultured in DMEM containing 10% fetal bovine serum and 1% penicillin-streptomycin under conditions of 5% CO2 at 37°C. The cells were used within the first five passages for analysis.

[8] = test system: rat annulus fibrosus cells; assay: Alteration in gene expression by oxidative stress inducers (RT-PCR); type: cell-based; details: 24 hours
Experimental: as §2, §3, §4, §5
Rat annulus fibrosus cells were cultured in a medium added with hydrogen peroxide (concentration: 10 µM and 100 µM) or BSO (concentration: 0.2 mM and 1 mM) for 24 hours and collected. RNA was extracted, and the mRNA expression of TNF-α, MMP-3, COX-2, and aggrecan was quantitatively measured by RT-PCR. RNA extraction and RT-PCR were performed in the same way as in the model animals described above.

[9] = puncture group versus NAC group
[10] = 100 µM NAC, 100 µM hydrogen peroxide or 1 mM BSO
[11] = 20 mM α-tocopherol, hydrogen peroxide or BSO, ethanol control
[12] = hydrogen peroxide 10 µM and 100 µM

In the case of C[S+]([O-])c1ccc(-c2nc(-c3ccncc3)c(-c3ccc(F)cc3)[nH]2)cc1 (stereo not drawn) [SB], the “expression of COX-2” value (COX-2 mRNA expression) is reported as “significantly suppressed”.
For COc1cccc(-c2cc(=O)c3ccccc3o2)c1N [PD], the “expression of COX-2” value (COX-2 mRNA expression) was “significantly suppressed”.
With CC(=O)N[C@@H](CS)C(=O)O [NAC, N-acetylcysteine] the “activation of the MAPK signaling cascade caused by stimulation with TNF-α” value (MAPK signaling cascade) was “suppressed”, the “oxidative stress induced by the addition of TNF-α (gene expression of MMP-3, COX-2, and aggrecan)” value ([1]; 50 ng/ml TNF-α in the presence of 100 µM NAC) was “suppress” and the “effect of administration in an experiment using rats” value ([2]; 159 mg/kg/day) was “effective”. The “T2-weighted images, difference between the puncture group and the NAC group” value ([2]; 5 rats per group) was “rarely showed the difference”, the T2 high-intensity area ([2]; NAC water (1 g/L, 159 mg/kg/day) from 1 week after puncture, MRI 2 months after puncture, NAC group compared with puncture group) was “significantly improved” and the “T2 mapping values obtained from T2-weighted images focused on the nucleus pulposus” value [2, 9] was “did not significantly differ”. The “phosphorylation of p38 MAPK” value ([3]; 100 µM hydrogen peroxide in the presence of 100 µM NAC, 15 minutes) was “significantly suppressed”, the intervertebral disc degeneration [4] was “prevented” and the “QSI analysis (probability at zero displacement), difference between the puncture group and the NAC group” value ([5]; 5 rats per group) was “showed the difference”. The QSI parameter values [5, 9] was “significant difference”, the “increase in the expression of COX-2 by oxidative stress” value [6, 10] was “significantly suppressed” and the “increase in the expression of MMP-3 by oxidative stress” value [6, 10] was “significantly suppressed”. For the same molecule, the “increase in the expression of TNF-α by oxidative stress” value [6, 10] was “significantly suppressed” and the “reduction in the expression of aggrecan by oxidative stress” value [6, 10] was “suppressed”.
With Cc1c(C)c2c(c(C)c1O)CCC(C)(CCCC(C)CCCC(C)CCCC(C)C)O2 (stereo not drawn) [α-tocopherol] the “oxidative stress induced by the addition of TNF-α (gene expression of MMP-3, COX-2, and aggrecan)” value ([1]; 50 ng/ml TNF-α in the presence of 20 mM α-tocopherol) was “suppress”, the “increase in the expression of COX-2 by oxidative stress” value [6, 11] was “significantly suppressed” and the “increase in the expression of MMP-3 by oxidative stress” value [6, 11] was “significantly suppressed”. For the same molecule, the “increase in the expression of TNF-α by oxidative stress” value [6, 11] was “significantly suppressed” and the “reduction in the expression of aggrecan by oxidative stress” value [6, 11] was “suppressed”.
In the case of CCCCS(=N)(=O)CCC(N)C(=O)O (stereo not drawn) [BSO, buthionine sulfoximine], the “phosphorylation of the MAPKs p38, ERK, and JNK” value ([3]; 1 mM BSO) is reported as “strongly phosphorylated”, the “intracellular level of reactive oxygen species” value ([7]; 1 mM BSO for 24 hours) is reported as “increase” and the “mRNA expression of COX-2” value ([8]; BSO 0.2 mM and 1 mM) is reported as “concentration-dependent increase”. The “mRNA expression of MMP-3” value ([8]; BSO 0.2 mM and 1 mM) was “concentration-dependent increase”, the “mRNA expression of TNF-α” value ([8]; BSO 0.2 mM and 1 mM) was “concentration-dependent increase” and the “mRNA expression of aggrecan” value ([8]; BSO 0.2 mM and 1 mM) was “reduced in a concentration-dependent manner”.
With OO [hydrogen peroxide] the “phosphorylation of the MAPKs p38, ERK, and JNK” value ([3]; 100 µM hydrogen peroxide) was “strongly phosphorylated”, the “intracellular level of reactive oxygen species” value ([7]; 100 µM hydrogen peroxide for 24 hours) was “increase” and the “mRNA expression of COX-2” value [8, 12] was “concentration-dependent increase”. The “mRNA expression of MMP-3” value [8, 12] was “concentration-dependent increase”, the “mRNA expression of TNF-α” value [8, 12] was “concentration-dependent increase” and the “mRNA expression of aggrecan” value [8, 12] was “reduced in a concentration-dependent manner”.
